Measured values: patent publication US20100314318A1, “HALOGENATED AMIDE BIOCIDAL COMPOUNDS AND METHODS FOR TREATING WATER SYSTEMS AT NEAR NEUTRAL TO HIGH PH” (priority 2009, published 2010)

Assays:
[1] = system: bacteria in Cooling Tower water; assay: Efficacy in cooling tower water sample (about pH 8.3), serial dilution count; format: cell-based
[2] = system: bacteria isolated from Cooling Tower water; assay: Efficacy in sterile artificial Cooling Tower water (approx. pH 8.5); format: cell-based; settings: 30° C.
[3] = system: bacteria isolated from field; assay: Efficacy in semi-synthetic metal working fluid; format: cell-based; settings: room temperature, MWF
[4] = system: Pseudomonas aeruginosa ATCC 10145; assay: Bactericidal efficacy in synthetic salts water pH 8.5; format: cell-based; settings: 37° C.
Protocol: A sterile synthetic salts water is prepared and inoculated with Pseudomonas aeruginosa ATCC 10145 at about 10^7 CFU/mL. The synthetic water is prepared to contain (in 1 liter deionized water) the following: CaCl2, 0.2203 g; MgSO4, 0.1847 g; and NaHCO3, 0.2033 g. The final pH of the synthetic cooling water is adjusted to 8.5. Aliquots of the cell suspension are then treated with biocides at selected dosage levels. The same contaminated water sample without biocide is used as control. After incubating at 37° C. for different time intervals, numbers of surviving bacteria are enumerated using a serial dilution method. After incubating for 24 hr, all cell suspensions are reinoculated with Pseudomonas aeruginosa ATCC 10145 at 10^6 CFU/mL. The efficacy results for […]

[5] = going from pH 6 to pH 8.9; cited from earlier work
[6] = system: bacterial consortium; assay: Preservation of calcium carbonate slurry Hydrocarb 90 (pH 8.7); settings: 24-hr contact
[7] = Stability against hydrolysis in buffered dilute solutions, HPLC

Compound: N#CC(Br)(Br)C(N)=O [DBNPA, 2,2-Dibromo-3-nitrilopropionamide]
- Bacterial log10 reduction after biocide addition ([1]; 12.5 ppm active, 1 hr): 5.3 log10
- Bacterial log10 reduction after biocide addition ([1]; 12.5 ppm active, 48 hrs, re-inoculated): 1.5 log10
- Bacterial log10 reduction after biocide addition ([1]; 12.5 ppm active, 72 hrs, re-inoculated): 0.7 log10
- Bacterial log10 reduction after biocide addition ([1]; 12.5 ppm active, 96 hrs, re-inoculated): 0.3 log10
- Bacterial log10 reduction after biocide addition ([1]; 25 ppm active, 1 hr): 5.2 log10
- Bacterial log10 reduction after biocide addition ([1]; 25 ppm active, 3 hr): >=5.7 log10
- Bacterial log10 reduction after biocide addition ([1]; 25 ppm active, 24 hrs): >=6.3 log10
- Bacterial log10 reduction after biocide addition ([1]; 25 ppm active, 48 hrs, re-inoculated): 4.2 log10
- Bacterial log10 reduction after biocide addition ([1]; 25 ppm active, 72 hrs, re-inoculated): 1.0 log10
- Bacterial log10 reduction after biocide addition ([1]; 25 ppm active, 96 hrs, re-inoculated): 0.7 log10
- Bacterial log10 reduction after biocide addition ([1]; 50 ppm active, 1 hr): >=5.3 log10
- Bacterial log10 reduction after biocide addition ([1]; 50 ppm active, 3 hr): >=5.7 log10
- Bacterial log10 reduction after biocide addition ([1]; 50 ppm active, 24 hrs): >=6.3 log10
- Bacterial log10 reduction after biocide addition ([1]; 50 ppm active, 48 hrs, re-inoculated): 6.1 log10
- Bacterial log10 reduction after biocide addition ([1]; 50 ppm active, 72 hrs, re-inoculated): 1.0 log10
- Bacterial log10 reduction after biocide addition ([1]; 50 ppm active, 96 hrs, re-inoculated): 0.8 log10
- Minimum biocide dosage (ppm, active) needed for at least 3 log10 bacterial reduction ([2]; 1 h): 8.0 ppm
- Minimum biocide dosage (ppm, active) needed for at least 3 log10 bacterial reduction ([2]; 3 h): 8.0 ppm
- Minimum biocide dosage (ppm, active) needed for at least 3 log10 bacterial reduction ([2]; 24 h): 11.0 ppm
- Minimum biocide dosage (ppm, active) needed for at least 3 log10 bacterial reduction ([2]; 48 h, reinoculated): 15.0 ppm
- Minimum biocide dosage (ppm, active) needed for at least 3 log10 bacterial reduction ([2]; 72 h, reinoculated): 15.0 ppm
- Minimum biocide dosage (ppm, active) needed for at least 3 log10 bacterial reduction ([2]; 96 h, reinoculated): 21.0 ppm
- Minimum dosage (ppm, active) required for at least 3 log10 reduction in bacterial counts ([3]; 2 h): 42 ppm
- Minimum dosage (ppm, active) required for at least 3 log10 reduction in bacterial counts ([3]; 4 h): 32 ppm
- Minimum dosage (ppm, active) required for at least 3 log10 reduction in bacterial counts ([3]; 24 h): 42 ppm
- Minimum dosage (ppm, active) required for at least 3 log10 reduction in bacterial counts ([3]; 48 h): 55 ppm
- Minimum dosage (ppm, active) required for at least 3 log10 reduction in bacterial counts ([3]; 72 h): 55 ppm
- Minimum dosage (ppm, active) required for at least 3 log10 reduction in bacterial counts ([3]; 96 h): 55 ppm
- Dosage required for 3 log10 bacterial reduction (ppm, active) ([4]; 1 hr, pH 8.5): 2.9 ppm
- Dosage required for 3 log10 bacterial reduction (ppm, active) ([4]; 3 hr, pH 8.5): 2.9 ppm
- Dosage required for 3 log10 bacterial reduction (ppm, active) ([4]; 24 hr, pH 8.5): 4.4 ppm
- Dosage required for 3 log10 bacterial reduction (ppm, active) ([4]; 48 hr, pH 8.5, reinoculated after 24 hr): 50.0 ppm
- factor by which rate of disappearance increases [5]: about 450
- change in populations of bacteria (FIG. 6) ([6]; 5 ppm): decrease relatively little
- decrease in numbers of bacteria (FIG. 6) ([6]; 10 ppm): approximately 0.5 orders of magnitude
- level of DBMAL or DBNPA remaining (HPLC) ([7]; pH 6.9, T = 30 C., 0 hours): 3991
- level of DBMAL or DBNPA remaining (HPLC) ([7]; pH 6.9, T = 30 C., 2 hours): 4155
- level of DBMAL or DBNPA remaining (HPLC) ([7]; pH 6.9, T = 30 C., 24 hours): 2557
- level of DBMAL or DBNPA remaining (HPLC) ([7]; pH 6.9, T = 30 C., 48 hours): 1361
- level of DBMAL or DBNPA remaining (HPLC) ([7]; pH 6.9, T = 30 C., 72 hours): 918
- level of DBMAL or DBNPA remaining (HPLC) ([7]; pH 6.9, T = 30 C., 96 hours): 658
- level of DBMAL or DBNPA remaining (HPLC) ([7]; pH 8, T = −1 C., 0 hours): 4068
- level of DBMAL or DBNPA remaining (HPLC) ([7]; pH 8, T = −1 C., 2 hours): 3998
- level of DBMAL or DBNPA remaining (HPLC) ([7]; pH 8, T = −1 C., 24 hours): 3506
- level of DBMAL or DBNPA remaining (HPLC) ([7]; pH 8, T = −1 C., 48 hours): 3578
- level of DBMAL or DBNPA remaining (HPLC) ([7]; pH 8, T = −1 C., 72 hours): 3149
- level of DBMAL or DBNPA remaining (HPLC) ([7]; pH 8, T = −1 C., 96 hours): 3070
- level of DBMAL or DBNPA remaining (HPLC) ([7]; pH 9, T = −1 C., 0 hours): 3842
- level of DBMAL or DBNPA remaining (HPLC) ([7]; pH 9, T = −1 C., 2 hours): 2818
- level of DBMAL or DBNPA remaining (HPLC) ([7]; pH 9, T = −1 C., 24 hours): 1256
- level of DBMAL or DBNPA remaining (HPLC) ([7]; pH 9, T = −1 C., 48 hours): 659
- level of DBMAL or DBNPA remaining (HPLC) ([7]; pH 9, T = −1 C., 72 hours): 363
- level of DBMAL or DBNPA remaining (HPLC) ([7]; pH 9, T = −1 C., 96 hours): 239
